Test results from the supplement of paper PMC10307832.

Assays:
Experiment in all cases: relative viability (nuclei count vs DMSO), 5 days (fraction); higher = more cells survive
Fedratinib + Trametinib = compound: Cc1cnc(Nc2ccc(OCCN3CCCC3)cc2)nc1Nc1cccc(S(=O)(=O)NC(C)(C)C)c1 [Fedratinib] + CC(=O)Nc1cccc(-n2c(=O)n(C3CC3)c(=O)c3c(Nc4ccc(I)cc4F)n(C)c(=O)c(C)c32)c1 [Trametinib] (partner 0.02 µM)
Summary of the method: (§1)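 The day after seeding in 1536-well plates, lung cancer cell lines were treated by pin tool with a single drug, or with a fixed anchor-drug dose together with five library-drug doses (not always all listed) in √10 steps. After 5 days, a combined fix-and-stain solution (final 0.05% Triton X-100, 1% formaldehyde, 1 ug/ml Hoechst) was added. Nuclei counted on 4× images gave relative viability as treated counts over vehicle counts, reported as the median of duplicate plates.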

GW-2580 + Tozasertib = compound: COC1=CC=C(C=C1)COC2=C(C=C(C=C2)CC3=CN=C(N=C3N)N)OC [GW-2580] + Cc1cc(Nc2cc(N3CCN(C)CC3)nc(Sc3ccc(NC(=O)C4CC4)cc3)n2)n[nH]1 [Tozasertib] (partner 0.1 µM)
Summary of the method: as §1

GW-2580 + Pemetrexed = compound: COC1=CC=C(C=C1)COC2=C(C=C(C=C2)CC3=CN=C(N=C3N)N)OC [GW-2580] + Nc1nc2[nH]cc(CCc3ccc(C(=O)N[C@@H](CCC(=O)O)C(=O)O)cc3)c2c(=O)[nH]1 [Pemetrexed] (partner 0.2 µM)
Summary of the method: as §1

Fedratinib + AZD7762 = compound: Cc1cnc(Nc2ccc(OCCN3CCCC3)cc2)nc1Nc1cccc(S(=O)(=O)NC(C)(C)C)c1 [Fedratinib] + NC(=O)Nc1cc(-c2cccc(F)c2)sc1C(=O)N[C@H]1CCCNC1 [AZD7762] (partner 0.2 µM)
Summary of the method: as §1

GW-2580 + Decitabine = compound: COC1=CC=C(C=C1)COC2=C(C=C(C=C2)CC3=CN=C(N=C3N)N)OC [GW-2580] + Nc1ncn([C@H]2C[C@H](O)[C@@H](CO)O2)c(=O)n1 [Decitabine] (partner 2 µM)
Summary of the method: as §1

Cell Line | relative viability (Fedratinib + Trametinib; first compound 0.1 µM) | relative viability (Fedratinib + Trametinib; first compound 0.3162 µM) | relative viability (Fedratinib + Trametinib; first compound 1 µM) | relative viability (GW-2580 + Tozasertib; first compound 0.08 µM) | relative viability (GW-2580 + Tozasertib; first compound 0.8 µM) | relative viability (GW-2580 + Tozasertib; first compound 2.53 µM) | relative viability (GW-2580 + Tozasertib; first compound 8 µM) | relative viability (GW-2580 + Pemetrexed; first compound 0.08 µM) | relative viability (GW-2580 + Pemetrexed; first compound 0.8 µM) | relative viability (GW-2580 + Pemetrexed; first compound 2.53 µM) | relative viability (GW-2580 + Pemetrexed; first compound 8 µM) | relative viability (Fedratinib + AZD7762; first compound 0.1 µM) | relative viability (Fedratinib + AZD7762; first compound 0.3162 µM) | relative viability (Fedratinib + AZD7762; first compound 1 µM) | relative viability (GW-2580 + Decitabine; first compound 0.08 µM) | relative viability (GW-2580 + Decitabine; first compound 0.8 µM) | relative viability (GW-2580 + Decitabine; first compound 2.53 µM) | relative viability (GW-2580 + Decitabine; first compound 8 µM)
LXF-289 | 0.676 | 0.61 | 0.621 | 0.191 | 0.188 | 0.161 | 0.157 | 0.883 | 0.96 | 0.881 | 0.85 | 1.08 | 1.07 | 0.966 | 0.358 | 0.391 | 0.407 | 0.368
NCI-H23 | 0.373 | 0.395 | 0.306 | 0.418 | 0.401 | 0.392 | 0.31 | 0.581 | 0.869 | 0.777 | 0.492 | 0.356 | 0.27 | 0.183 | 0.324 | 0.334 | 0.308 | 0.283
NCI-H322M | 0.439 | 0.481 | 0.508 | 0.491 | 0.553 | 0.476 | 0.593 | 0.582 | 0.626 | 0.676 | 0.567 | 0.596 | 0.591 | 0.414 | 0.73 | 0.816 | 0.611 | 0.489
NCI-H358 | 0.126 | 0.125 | 0.111 | 0.103 | 0.117 | 0.11 | 0.104 | 0.171 | 0.186 | 0.166 | 0.178 | 0.502 | 0.49 | 0.438 | 0.208 | 0.206 | 0.201 | 0.217
NCI-H441 | 0.348 | 0.345 | 0.301 | 0.698 | 0.704 | 0.584 | 0.655 | 0.273 | 0.26 | 0.234 | 0.262 | 1.34 | 1.09 | 1.05 | 0.207 | 0.198 | 0.243 | 0.222
NCI-H460 | 0.163 | 0.156 | 0.061 | 0.349 | 0.394 | 0.422 | 0.33 | 0.0622 | 0.0626 | 0.0647 | 0.0595 | 0.738 | 0.563 | 0.544 | 0.577 | 0.574 | 0.461 | 0.461
NCI-H522 | 0.675 | 0.62 | 0.681 | 0.551 | 0.579 | 0.318 | 0.541 | 1.11 | 0.97 | 0.967 | 0.994 | 0.829 | 0.851 | 0.77 | 0.738 | 0.62 | 0.668 | 0.682
NCI-H596 | 0.739 | 0.804 | 0.755 | 0.956 | 1.02 | 0.891 | 0.919 | 0.44 | 0.502 | 0.562 | 0.512 | 0.965 | 1.04 | 1.13 | 1.12 | 0.883 | 1.89 | 0.937
NCI-H647 | 0.521 | 0.493 | 0.366 | 0.358 | 0.218 | 0.418 | 0.189 | 0.16 | 0.185 | 0.16 | 0.229 | 0.424 | 0.444 | 0.249 | 0.402 | 0.272 | 0.361 | 0.383
NCI-H650 | 1.04 | 1.04 | 0.869 | 0.721 | 0.743 | 0.669 | 0.589 | 1.04 | 1.11 | 0.792 | 0.855 | 1.17 | 0.933 | 0.755 | 0.337 | 0.315 | 0.292 | 0.328
NCI-H838 | 0.475 | 0.525 | 0.542 | 0.291 | 0.341 | 0.295 | 0.248 | 0.268 | 0.262 | 0.234 | 0.266 | 0.961 | 0.913 | 0.906 | 0.438 | 0.466 | 0.435 | 0.426
NCI-H1355 | 0.442 | 0.387 | 0.412 | 0.532 | 0.494 | 0.396 | 0.477 | 1.09 | 1.13 | 0.914 | 0.965 | 0.646 | 0.707 | 0.612 | 0.314 | 0.339 | 0.322 | 0.353
NCI-H1395 | 0.979 | 0.962 | 0.814 | 0.829 | 0.805 | 0.658 | 0.734 | 0.9 | 0.986 | 0.863 | 0.88 | 0.385 | 0.402 | 0.377 | 0.793 | 0.689 | 0.753 | 0.776
NCI-H1437 | 0.492 | 0.561 | 0.564 | 0.412 | 0.433 | 0.405 | 0.291 | 0.297 | 0.307 | 0.299 | 0.273 | 1.13 | 1.13 | 1.09 | 0.564 | 0.574 | 0.617 | 0.535
NCI-H1648 | 0.383 | 0.441 | 0.43 | 0.427 | – | – | 0.429 | 0.778 | – | 0.609 | 0.611 | 0.818 | 0.558 | 0.548 | 0.531 | – | 0.464 | 0.552
NCI-H1651 | 0.778 | 0.826 | 0.859 | 0.763 | 0.745 | 0.702 | 0.569 | 0.605 | 0.711 | 0.578 | 0.45 | 0.502 | 0.404 | 0.435 | 0.565 | 0.666 | 0.551 | 0.548
NCI-H1666 | 1 | 0.824 | 0.861 | 0.675 | 0.661 | 0.581 | 0.592 | 0.863 | 0.91 | 0.901 | 0.787 | 0.751 | 0.836 | 0.807 | 0.604 | 0.888 | 0.738 | 0.698
